Measurements as given in PubChem BioAssay (NCI).
Several values for one entry are separate records, joined by “and”; a condition that tells them apart may be missing. Identical values can stand only once.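 Grown in 96-well plates, cells were treated for 48 hours with each compound at five concentrations. Insufficient inhibition: endpoint recorded as highest concentration tested. GI50 is the concentration that inhibits growth by half. Definition used: TGI = concentration required for complete inhibition of growth.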 Starred links: 1 amine or outer side, 2 acyl side, 3 side chain; linkers in the order of their positions; H or OH if unused. Non-standard residues stand in square brackets, D forms with d. Residues, ends and D or L forms follow the SMILES beside them. *: point of attachment. X14 = C/C=C/CC(C)C(O)[C@H](N[*:1])C(=O)[*:2]; Decanoyl = CCCCCCCCCC(=O)*; Leu(ol) = CC(C)C[C@H](N)CO; Iva = CC[C@](C)(N)C(=O)O; Aib = CC(C)(N)C(=O)O

What follows are compounds tested on MDA-MB-468 breast (assay: NCI anticancer screen, dose series, 48 h).

Row | SMILES | GI50 | TGI
1 | N#C/C(=C\c1ccc(F)cc1)n1nc2cccc(F)c2n1 | 3050 nM | > 100000 nM
2 | CC(C)OCc1cc(CN2CCN(c3cccc(Cl)c3)CC2)c(O)c2ncccc12 | 346 nM | 1670 nM
3 | CCC(C)(C)[C@H](NC(=O)[C@H]1CCCCN1C)C(=O)N(C)[C@H](C[C@@H](OC(C)=O)c1nc(C(=O)N[C@@H](Cc2ccccc2)C[C@H](C)C(=O)O)cs1)C(C)C | < 1.67 nM | < 1.67 nM
4 | O=c1[nH]c(F)nc2c1ncn2C1OC(CO)C(O)C1O (centres undefined) | > 100000 nM | > 100000 nM
5 | COc1ccc(C2CC(c3ccc4ccccc4c3)=NN2c2nc(O)c(C3=c4cc(OC)ccc4=NC3=O)s2)cc1 (centres undefined) | 46.2 nM | 200 nM
6 | CCC(C)CC(C)C(=O)c1c(O)ccn(O)c1=O (centres undefined) | 2100 nM | 9470 nM
7 | CCCOc1ccc(/C=N/Nc2cc(C)nc3ccc(Cl)cc23)cc1 | 1690 nM | 3190 nM
8 | CN(CSc1ccc(Cl)cc1)c1ccc(CSc2ccc(Cl)cc2)cc1 | 1850 nM | 5070 nM
9 | Oc1ccc(Cc2ccc(O)c(C3CC(c4ccc(Cl)cc4)=NN3)c2)cc1C1CC(c2ccc(Cl)cc2)=NN1 (centres undefined) | 2850 nM | 9440 nM
10 | COc1cc2c(cc1OCCCCn1c(-c3cccs3)nc3ccccc31)N=C[C@@H]1CCCN1C2=O | 333 nM | 1600 nM
11 | FC(F)(F)c1ccc(-c2ncc(-c3ccc(C(F)(F)F)cc3)c(NCc3cc(C(F)(F)F)cc(C(F)(F)F)c3)n2)cc1 | 3200 nM | 15500 nM
12 | O=C1/C(=C\c2ccccc2)CN(C(=O)c2ccccc2)C/C1=C\c1ccccc1 | 1690 nM | 3560 nM
13 | O=C1NC(=O)C(c2ccccc2)=C1Nc1ccccc1 | > 25000 nM | > 25000 nM
14 | O=C(/C=C/c1cccc(S(=O)(=O)Nc2ccccc2)c1)NO | 241 nM | 5360 nM
15 | NC(=N\N=C/c1ccc(Cl)cc1Cl)/C(N)=N\N=C/c1ccc(Cl)cc1Cl | 6870 nM | > 100000 nM
16 | Cc1cc(C(O)(c2ccc(Nc3ccccc3)cc2)c2ccc(Nc3ccc(S(=O)(=O)O)cc3)cc2)ccc1N (centres undefined) | 480 nM | 2480 nM
17 | O=C(Cc1ccc(Nc2ccnc(C(F)(F)F)c2)cc1)N/N=C/c1ccccc1O | 3000 nM | 39300 nM
18 | O=C(Nc1ccc(I)cc1)c1cccc([N+](=O)[O-])c1O | 2070 nM | 7400 nM
19 | NCCCNc1nc2ccc(Cl)cc2c2c(=O)c3cc(F)ccc3sc12 | 2900 nM | 10100 nM

Row | SMILES | GI50 | TGI
20 | c1ccc(-c2cn(-c3ccccc3)c(-c3ccccc3)n2)cc1 | 10100 nM | 30500 nM
21 | COc1ncc(-c2ccc3nccc(C#CCN4CCN(S(C)(=O)=O)CC4)c3c2)cc1NS(=O)(=O)c1ccc(F)cc1F | 19.8 nM | 122 nM
22 | Brc1ccc(Nc2nc3ccccc3nc2Nc2ccc(Br)cc2)cc1 | 365 nM | 2580 nM
23 | C/C=C/CC(C)C(O)[C@H](NC(=O)[C@@H]1CCCN1C(=O)C(C)(C)NC(=O)CCCCCCCCC)C(=O)N[C@@](C)(CC)C(=O)N[C@@H](CCC(N)=O)C(=O)N[C@H](CCC(N)=O)C(=O)NC(C)(C)C(=O)N[C@@](C)(CC)C(=O)N[C@@H](CCC(N)=O)C(=O)N[C@H](CC(C)C)C(=O)N[C@H](CO)CC(C)C (stereo partly drawn) (Decanoyl-[Aib]P[X14][Iva]Q[dQ][Aib][Iva]Q[dL][Leu(ol)]) | 32.9 nM | 260 nM
24 | CN1CCN(c2ccc(Nc3nc(NCCNS(=O)(=O)c4ccc5ccccc5c4)c4sccc4n3)cc2)CC1 | 2830 nM | 12200 nM
25 | CCCCN(CC)CCCCCCCCCCN1CCCc2cc(OC)ccc21 | 1590 nM | 3580 nM
26 | O=C1c2cccnc2C(=O)c2c1c(C(=O)OCCc1ccccn1)c1ccccn21 | 1840 nM | 5060 nM
27 | O=C(NS(=O)(=O)c1ccc(NC[C@H]2COCCO2)c([N+](=O)[O-])c1)c1ccc(N2CCN(CC3=C(c4ccc(Cl)cc4)CC4(CCC4)CC3)CC2)cc1Oc1cnc2[nH]ccc2c1 | 1790 nM | 4350 nM
28 | Cc1[nH]c(C(=O)Nc2ccc(S(=O)(=O)N3CCCCC3)cc2OCCOCCOCCOCCOCCOCCOCCOCCOCCOc2cc(S(=O)(=O)N3CCCCC3)ccc2NC(=O)c2[nH]c(C)c3c2CCCCC3=O)c2c1C(=O)CCCC2 | 191 nM | 794 nM
29 | O=C(O)c1ccc(C(=O)O)c(C(=O)O)c1.[NH-]C1CCCCC1[NH-].[Pt+2] | 35700 nM | > 100000 nM
30 | O=Cc1ccc(-c2ccc(-c3ccc(C=O)o3)[se]2)o1 | 22600 nM | > 100000 nM
31 | FC(F)(F)c1cc(-c2ncn(/C=C\c3nnco3)n2)cc(C(F)(F)F)c1 | 85.4 nM | 740 nM
32 | CCCCCCc1cc2cc(-c3csc(/C=C/c4ccccc4)n3)c(=O)oc2cc1O | 6100 nM | 28700 nM
33 | CCN1C(=O)N(CC)C2C1NC(=S)N2/N=C/C=C/c1ccccc1OC (centres undefined) | 35.3 nM | 38900 nM
34 | COC(=O)[C@@H](C)C[C@H](Cc1ccccc1)NC(=O)c1csc([C@@H](C[C@H](C(C)C)N(C)C(=O)C2(NC(=O)[C@H]3CCCCN3C)CCC2)OC(C)=O)n1 | 1.23 nM and 2.5 nM | > 25000 nM
35 | NC(=O)CCc1ccccc1Oc1nccc(-c2c(-c3ccc(F)cc3)ncn2C2CCNCC2)n1 | 10000 nM | > 25000 nM
36 | CCOC(=O)[C@@H](C)C[C@H](Cc1ccccc1)NC(=O)c1csc([C@@H](C[C@H](C(C)C)N(C)C(=O)[C@@H](NC(=O)[C@H]2C[C@H](O)CCN2C)C(C)C)OC(C)=O)n1 | < 1.67 nM | > 16700 nM
37 | COc1cc(/C=C/C(=O)c2c(C)nc3ccccc3c2C)ccc1OCCCCOc1cc2c(cc1OC)C(=O)N1CCC[C@H]1C=N2 | 235 nM | 625 nM
